pIC50: −log10 of the molar value.
Each molecule was assayed on HCV replicon RNA replication in human Huh7 hepatoma cells (assay: HCV replicon assay (activity levels from either or both of HCV replicon assay 1, Huh7/Clone A RT-qPCR, and assay 2, Huh7 ET luc-ubi-neo/ET)). Details: Hepatitis C virus, Huh-7, either or both HCV replicon assays: Huh7/Clone A, 48 hours, 72 hours, Luc activity or RT-PCR, read-out: inhibit HCV replication at IC50 levels or estimated IC50 levels.
Type: cell-based, Hepatitis C virus (HCV)
From the text: The HCV replicon assay is a cell-culture system that mimics in vivo HCV replication and provides a system to study HCV replication in vitro. It was created by transfecting cloned viral RNA derived from a consensus HCV genomic sequence into human Huh7 hepatoma cells that are semi-permissive for viral RNA production (Lohmann V., Korner F., Koch J.-O., Herian U., Theilmann L. and Bartenschlager R. (1999). Replication of subgenomic Hepatitis C virus RNAs in a hepatoma cell line. Science 285, 110-113 and Blight K. J., Kolykhalov A. A. and Rice C. M. (2000). Efficient initiation of HCV RNA Replication in cell culture. Science 290, […]). These transfected cell lines contain a subgenomic HCV RNA genome that includes (1) the HCV 5′NTR fused to 12 amino acids of the capsid coding region, (2) the neomycin phosphotransferase gene (Neo) as a selectable marker, (3) the internal ribosome entry site (IRES) from encephalomyocarditis virus (EMCV) that directs translation of HCV non-structural proteins (variously NS2 or NS3 to NS5B), and (4) the 3′ NTR. Replicon-containing cells autonomously and persistently replicate HCV RNA that can be measured quantitatively by real-time qPCR. Therefore, the replicon system facilitates quantitative assessment of anti-viral activity by monitoring changes in HCV RNA replication in a cell-based assay.
HCV replicon-containing cells (Huh7/Clone A) were routinely maintained in Clone A growth medium (DMEM medium [Invitrogen], supplemented with 10% Fetal Bovine Serum, 1% Non Essential Amino Acids and 1 g/L G418). Test compounds were dissolved in dimethyl sulfoxide (DMSO) to make 200× stock solutions for all doses prior to treatment.
For the HCV replicon assay, Huh7/Clone A cells were trypsinized from culture flasks, seeded in 1 ml of Clone A growth medium without G418 at 4×10^4 cells per well in 24-well plates and incubated at 37° C. in a humidified CO2 (5%) incubator overnight. Following overnight incubation, compound solutions were added into wells in the same volume (5 μl of 200× compound stock per well) to give a final DMSO concentration of 0.5%. Three wells on each plate supplemented with 5 μl of DMSO served as untreated controls. For IC50 determinations, compounds were tested at 7 serial dilutions in triplicates from the starting stock solutions. The plates were incubated at 37° C. for 48 hours. After incubation, cells were harvested, transferred to 96-well plates, and subjected to total RNA extraction using the RNA Isolation Kit (RNeasy 96, Qiagen) according to the protocol described by the manufacture's RNeasy 96 Handbook (Qiagen).
Total RNA eluted in 130 μl of RNase-free dH2O was quantitated by the RiboGreen Assay according to the supplier's protocol (Molecular Probe). Briefly, 5 μl of RNA samples were aliquoted in duplicate to a 96-well black microplate and a 96-well TaqMan Optical plate. RNA samples in the black microplate were mixed with 95 μl of diluted RiboGreen:reagent (1:250 dilution in TE buffer) and sample fluorescence was measured using a fluorescence microplate reader at standard fluorescein wavelengths (excitation ˜480 nm, emission ˜520 nm). Ribosomal RNA (Molecular Probe) was used as standard.
TaqMan quantitative PCR (RT-qPCR) was used to quantitate the amount of HCV replicon RNA in each sample. The RT-qPCR reactions were performed in 25 μl on an ABI PRISM 7900 HT Sequence Detection System (Applied Biosystems). The reaction mixture contained 5 μl of total RNA (10-100 ng), 1× TaqMan Buffer A (Applied Biosystems), 5.5 mM MgCl2, 1.2 mM dNTP mix, 0.625 U of AmpliTaq Gold (Applied Biosystems), 5 U of MMLV reverse transcriptase (Promega), 5 U of rRNasin (Promega), 300 nM each of the forward and reverse primers, and 100 nM TaqMan MGB probe. Primers and probe were designed to hybridize to a portion of the neomycin resistance gene (neo) in the replicon and the sequences are as follows: forward primer 5′-GGCTACCTGCCCATTCGA-3′; reverse primer 5′-CCGGCTTCCATCCGAGTAC-3′; MGB probe 5′-CCACCAAGCGAAACA-3′. […]
`CN1CCN(c2cc3c(cc2F)c(=O)c(-c2noc(Cc4ccc(F)cc4)n2)cn3Cc2c(F)cccc2F)CC1` [Compound 49, 1-(2,6-difluoro-benzyl)-6-fluoro-3-[5-(4-fluoro-benzyl)-[1,2,4]oxadiazol-3-yl]-7-(4-methyl-piperazin-1-yl)-1H-quinolin-4-one] showed a pIC50 greater than 5.00. With `O=c1c(-c2noc(Cc3ccc(F)cc3)n2)cn(Cc2ccc(Cl)cc2)c2cc(N3CCN(c4ccccn4)CC3)c(F)cc12` [Compound 50, 1-(4-chlorobenzyl)-6-fluoro-3-(5-(4-fluorobenzyl)-1,2,4-oxadiazol-3-yl)-7-(4-(pyridin-2-yl)piperazin-1-yl)quinolin-4(1H)-one] the pIC50 was less than 5.00. In the case of `CN(C)c1cc2c(cc1F)c(=O)c(-c1noc(Cc3ccccc3)n1)cn2Cc1ccc(C(F)(F)F)cc1F` [Compound 51, 3-(5-benzyl-[1,2,4]oxadiazol-3-yl)-7-dimethylamino-6-fluoro-1-(2-fluoro-4-trifluoromethyl-benzyl)-1H-quinolin-4-one], the pIC50 was less than 5.00. Work on `CN1CCN(c2cc3c(cc2F)c(=O)c(-c2noc(CN4CCCCC4)n2)cn3Cc2ccc(Cl)cc2)CC1` [Compound 52, 1-(4-chloro-benzyl)-6-fluoro-7-(4-methyl-piperazin-1-yl)-3-(5-piperidin-1-ylmethyl-[1,2,4]oxadiazol-3-yl)-1H-quinolin-4-one] yielded a pIC50 of less than 5.00. In the case of `CN1CCN(c2cc3c(cc2F)c(=O)c(-c2noc(C(CC#N)c4ccccc4)n2)cn3Cc2ccc(Cl)cc2)CC1` (stereo not drawn) [Compound 53, 3-{3-[1-(4-chloro-benzyl)-6-fluoro-7-(4-methyl-piperazin-1-yl)-4-oxo-1,4-dihydro-quinolin-3-yl]-[1,2,4]oxadiazol-5-yl}-3-phenyl-propionitrile], the pIC50 was greater than 5.00. `CN1CCN(c2cc3c(cc2F)c(=O)c(-c2noc(CN4CCCC4)n2)cn3Cc2ccc(Cl)cc2)CC1` [Compound 54, 1-(4-chloro-benzyl)-6-fluoro-7-(4-methyl-piperazin-1-yl)-3-(5-pyrrolidin-1-ylmethyl-[1,2,4]oxadiazol-3-yl)-1H-quinolin-4-one] was tested, and the pIC50 was less than 5.00. With `CNc1cc2c(cc1F)c(=O)c(-c1noc(Cc3ccccc3)n1)cn2Cc1ccc(C(F)(F)F)cc1F` [Compound 55, 3-(5-Benzyl-[1,2,4]oxadiazol-3-yl)-6-fluoro-1-(2-fluoro-4-trifluoromethyl-benzyl)-7-methylamino-1H-quinolin-4-one] the pIC50 was less than 5.00. With `O=c1c(-c2noc(Cc3ccccc3)n2)cn(Cc2ccc(C(F)(F)F)cc2F)c2cc(-n3ccnc3)c(F)cc12` [Compound 56, 3-(5-benzyl-[1,2,4]oxadiazol-3-yl)-6-fluoro-1-(2-fluoro-4-trifluoromethyl-benzyl)-7-imidazol-1-yl-1H-quinolin-4-one] the pIC50 was greater than 5.70. In the case of `Cc1cn(-c2cc3c(cc2F)c(=O)c(-c2noc(Cc4ccccc4)n2)cn3Cc2ccc(C(F)(F)F)cc2F)cn1` [Compound 57, 3-(5-benzyl-[1,2,4]oxadiazol-3-yl)-6-fluoro-1-(2-fluoro-4-trifluoromethyl-benzyl)-7-(4-methyl-imidazol-1-yl)-1H-quinolin-4-one], the pIC50 was greater than 5.00. Work on `CN1CCN(c2cc3c(cc2F)c(=O)c(-c2noc(Cc4ccc(F)cc4)n2)cn3CCN2CCOCC2)CC1` [Compound 58, 6-fluoro-3-[5-(4-fluoro-benzyl)-[1,2,4]oxadiazol-3-yl]-7-(4-methyl-piperazin-1-yl)-1-(2-morpholin-4-yl-ethyl)-1H-quinolin-4-one] yielded a pIC50 of less than 5.00. Work on `CN1CCN(c2cc3c(cc2F)c(=O)c(-c2noc(Cc4ccccc4)n2)cn3CCN2CCOCC2)CC1` [Compound 59, 3-(5-benzyl-[1,2,4]oxadiazol-3-yl)-6-fluoro-7-(4-methyl-piperazin-1-yl)-1-(2-morpholin-4-yl-ethyl)-1H-quinolin-4-one] yielded a pIC50 of less than 5.00. Molecule `CN1CCN(c2cc3c(cc2F)c(=O)c(-c2noc(C(CC(N)=O)c4ccccc4)n2)cn3Cc2ccc(Cl)cc2)CC1` (stereo not drawn) [Compound 60, 3-{3-[1-(4-chloro-benzyl)-6-fluoro-7-(4-methyl-piperazin-1-yl)-4-oxo-1,4-dihydro-quinolin-3-yl]-[1,2,4]oxadiazol-5-yl}-3-phenyl-propionamide] has a pIC50 of less than 5.00. With `CN1CCN(c2cc3c(cc2F)c(=O)c(-c2noc(Cc4ccccn4)n2)cn3Cc2ccc(Cl)cc2)CC1` [Compound 61, 1-(4-chloro-benzyl)-6-fluoro-7-(4-methyl-piperazin-1-yl)-3-(5-pyridin-2-ylmethyl-[1,2,4]oxadiazol-3-yl)-1H-quinolin-4-one] the pIC50 was less than 5.00. Molecule `CN1CCN(c2cc3c(cc2F)c(=O)c(-c2noc(Cc4cccnc4)n2)cn3Cc2ccc(Cl)cc2)CC1` [Compound 62, 1-(4-chloro-benzyl)-6-fluoro-7-(4-methyl-piperazin-1-yl)-3-(5-pyridin-3-ylmethyl-[1,2,4]oxadiazol-3-yl)-1H-quinolin-4-one] has a pIC50 of less than 5.00. `CN1CCN(c2cc3c(cc2F)c(=O)c(-c2noc(C(CCCC#N)c4ccccc4)n2)cn3Cc2ccc(Cl)cc2)CC1` (stereo not drawn) [Compound 63, 5-{3-[1-(4-chloro-benzyl)-6-fluoro-7-(4-methyl-piperazin-1-yl)-4-oxo-1,4-dihydro-quinolin-3-yl]-[1,2,4]oxadiazol-5-yl}-5-phenyl-pentanenitrile] showed a pIC50 greater than 5.70. Work on `CN1CCN(c2cc3c(cc2F)c(=O)c(-c2noc(Cc4ccc(F)cc4)n2)cn3Cc2ccc(Cl)nc2)CC1` [Compound 64, 1-(6-chloro-pyridin-3-ylmethyl)-6-fluoro-3-[5-(4-fluoro-benzyl)-[1,2,4]oxadiazol-3-yl]-7-(4-methyl-piperazin-1-yl)-1H-quinolin-4-one] yielded a pIC50 greater than 5.00. With `CN1CCN(c2cc3c(cc2F)c(=O)c(-c2noc(Cc4ccccc4)n2)cn3Cc2ccc(Cl)nc2)CC1` [Compound 65, 3-(5-benzyl-[1,2,4]oxadiazol-3-yl)-1-(6-chloro-pyridin-3-ylmethyl)-6-fluoro-7-(4-methyl-piperazin-1-yl)-1H-quinolin-4-one] the pIC50 was greater than 5.00. For `COC(=O)CNc1cc2c(cc1F)c(=O)c(-c1noc(Cc3ccccc3)n1)cn2Cc1ccc(C(F)(F)F)cc1F` [Compound 66, methyl[3-(5-benzyl-[1,2,4]oxadiazol-3-yl)-6-fluoro-1-(2-fluoro-4-trifluoromethyl-benzyl)-4-oxo-1,4-dihydro-quinolin-7-ylamino]-acetate], the pIC50 was less than 5.00. `CN1CCN(c2cc3c(cc2F)c(=O)c(-c2noc(C(CCC(N)=O)c4ccccc4)n2)cn3Cc2ccc(Cl)cc2)CC1` (stereo not drawn) [Compound 67, 4-{3-[1-(4-chloro-benzyl)-6-fluoro-7-(4-methyl-piperazin-1-yl)-4-oxo-1,4-dihydro-quinolin-3-yl]-[1,2,4]oxadiazol-5-yl}-4-phenyl-butyramide] was tested, and the pIC50 was greater than 5.00. `COc1ccc2c(=O)c(-c3noc(Cc4ccccc4)n3)cn(Cc3ccc(C(F)(F)F)cc3)c2c1` [Compound 68, 3-(5-benzyl-oxadiazol-3-yl)-7-methoxy-1-(4-trifluoromethyl-benzyl)-1H-quinolin-4-one] showed a pIC50 of less than 5.00. For `NC(=O)CNc1cc2c(cc1F)c(=O)c(-c1noc(Cc3ccccc3)n1)cn2Cc1ccc(C(F)(F)F)cc1F` [Compound 69, 2-[3-(5-benzyl-[1,2,4]oxadiazol-3-yl)-6-fluoro-1-(2-fluoro-4-trifluoromethyl-benzyl)-4-oxo-1,4-dihydro-quinolin-7-ylamino]-acetamide], the pIC50 was greater than 5.00.
